The values below are quoted from earlier work in patent US20110151017A1, “OPHTHALMIC SOLUTIONS WITH IMPROVED DISINFECTION PROFILES” (priority 2009, published 2011).

For this data set the following is noted: aqueous solution, forming tetrahydroxyborate.

Take `OB(O)O` [Boric acid]: the Ka was 5.8e-10 mol/L.
